Data: patent US7105515B2, “Derivatives of sulphonamides, their preparation and use as medicaments” (Laboratories Del Dr. Esteve, S.A., priority 2001, dated 2006)
Counter-ions that a name gives are not always drawn.

| melting point | SMILES |
| --- | --- |
| 255 to 257 °C | CCN(CC)CCc1c[nH]c2ccc(NS(=O)(=O)c3cccc4ccccc34)cc12 (as salt: HCl) [Example 3, Hydrochloride N-[3-(2-diethylaminoethyl)-1H-indol-5-yl]naphthalene-1-sulphonamide] |
| 212 °C (dec.) | CN1CCC(c2c[nH]c3ccc(NS(=O)(=O)c4cccc5ccccc45)cc23)CC1 (as salt: HCl) [Example 13, N-[3-(1-methylpiperidin-4-yl)-1H-indol-5-yl]naphthalene-1-sulphonamide hydrochloride] |
| 170 to 173 °C | CCN(CC)CCc1c[nH]c2ccc(NS(=O)(=O)c3sc4ccc(Cl)cc4c3C)cc12 [Example 1, N-[3-(2-diethylaminoethyl)-1H-indol-5-yl]-5-chloro-3-methylbenzo[b]thiophene-2-sulphonamide] |
| 168 to 170 °C | CCN(CC)CCc1c[nH]c2ccc(NS(=O)(=O)c3cc(Cl)cc(Cl)c3)cc12 [Example 4, N-[3-(2-diethylaminoethyl)-1H-indol-5-yl]-3,5-dichlorobenzenesulphonamide] |
| 161 to 163 °C | CCN(CC)CCc1c[nH]c2ccc(NS(=O)(=O)c3ccc(-c4ccccc4)cc3)cc12 [Example 5, N-[3-(2-diethylaminoethyl)-1H-indol-5-yl]-4-phenylbenzenesulphonamide] |
| 180 to 181 °C | CCN(CC)CCc1c[nH]c2ccc(NS(=O)(=O)c3ccc(Cl)s3)cc12 [Example 6, N-[3-(2-diethylaminoethyl)-1H-indol-5-yl]-5-chlorothiophene-2-sulphonamide] |
| 226 to 227 °C | Cc1c(S(=O)(=O)Nc2ccc3[nH]cc(CCN(C)C)c3c2)sc2ccc(Cl)cc12 [Example 7, N-[3-(2-dimethylaminoethyl)-1H-indol-5-yl]-5-chloro-3-methylbenzo[b]thiophene-2-sulphonamide] |
| 203 to 205 °C | CN(C)CCc1c[nH]c2ccc(NS(=O)(=O)c3cccc4ccccc34)cc12 [Example 8, N-[3-(2-dimethylaminoethyl)-1H-indol-5-yl]naphthalene-1-sulphonamide] |
| 284 °C (dec.) | CN1CCC(c2c[nH]c3ccc(NS(=O)(=O)c4ccc(Cl)s4)cc23)CC1 [Example 14, N-[3-(1-methylpiperidin-4-yl)-1H-indol-5-yl]-5-chlorothiophene-2-sulphonamide] |
| 247 to 248 °C | CN1CCC(c2c[nH]c3ccc(NS(=O)(=O)c4ccc(-c5ccccc5)cc4)cc23)CC1 [Example 15, N-[3-(1-methylpiperidin-4-yl)-1H-indol-5-yl]-4-phenylbenzenesulphonamide] |
| 280 °C (dec.) | CN1CCC(c2c[nH]c3ccc(NS(=O)(=O)c4cccc5cccnc45)cc23)CC1 [Example 16, N-[3-(1-methylpiperidin-4-yl)-1H-indol-5-yl]quinoline-8-sulphonamide] |
| 172 to 173 °C | CCN(CC)CCc1c[nH]c2ccc(NS(=O)(=O)c3ccc4ccccc4c3)cc12 [Example 17, N-[3-(2-diethylaminoethyl)-1H-indol-5-yl]naphthalene-2-sulphonamide] |
